Results as given in US20170258769A1, “A Method for Topically Treating Actinic Keratosis on the Trunk (except chest) and Extremities with Ingenol 3-(3,5-diethylisoxazole-4-carboxylate)” (LEO Laboratories Limited, priority 2014, published 2017).

Key:
dermal tumours = test: in vivo studies in mice, effects on dermal tumours
Description: The exact mechanism of action of ingenol 3-(3,5-diethylisoxazole-4-carboxylate) continues to be investigated, but it is believed that ingenol 3-(3,5-diethylisoxazole-4-carboxylate) has a dual mechanism of action inducing cell death as well as stimulation of immune response.

actinic keratosis = test: Part 2: open-label trial, 0.1% gel once daily for three consecutive days on trunk (except chest) and extremities; type: in vivo, human
Description: The outcome for Part 2 is safety and efficacy in a once daily application for three consecutive days on the trunk (except chest) and extremities. The efficacy in treating of the AK will be measured as reduction in AK count in the treated area of lesions which are not considered hyperkeratotic/hypertrophic.
In parallel the efficacy in treating of the AK will be measured as reduction in AK count in the treated area of lesions which are considered hyperkeratotic/hypertrophic.
The reduction in AK count will be performed at week 4 and 8 no matter the type of lesion. Also complete clearance of AKs in the treated area which are not considered hyperkeratotic/hypertrophic at week 8 will be measured.
The trial medication applied is preferably a gel. The gel formulation comprises: isopropyl alcohol, hydroxyethyl cellulose, benzyl alcohol, citric acid monohydrate, sodium citrate dehydrate and water and active compound in a 0.1% concentration. For this particular trial, the dosing is two unit dose tubes daily, each containing 0.67 g.
To qualify for part 2 of the trial, the subjects must have 5-20 clinically visible and discrete AKs within a contiguous are of approximately 250 cm^2 area on the trunk (except chest) and extremities. In addition to the requirement of 5-20 clinically typical, visible and discrete AKs within the selected treatment area, subjects may also have visible and discrete hyperkeratotic/hypertrophic lesions in this area. The subjects will be treated with a dose of 0.1% as a once daily three consecutive days treatment and followed for 8 weeks.
The trial consists of an initial part, where 18 subjects will be treated on the trunk (except chest) and extremities. […] As this is a safety trial, it is considered justified to conduct this clinical trial as an open-label, uncontrolled trial. An early safety and tolerability evaluation will be performed following the 3 days treatment. If safety and tolerability is found acceptable by the Early Data Review Committee, and additional 44 subjects will be enrolled in order to expand safety observations and obtain an estimate of treatment efficacy.
LSRs are evaluated at all visits following visit 1. AK lesion counts are performed on Visit 2, 6 and 7.
tactile) assessment of the extent of photo-damage in the treatment area with respect to 1) fine wrinkling, 2) coarse wrinkling, 3) mottled pigmentation, 4) roughness, 5) sallowness, 6) skin laxity, and 7) telangiectasia. Severity for each of these characteristics will be on a 5-point scale: None (0), Mild (1), Moderate (2), Severe (3), Extreme (4).
At Visit 7 (Week 8) the Investigator will make an overall clinical (visual and tactile) assessment of the subject's photo-damage change from baseline in the treatment area (including an integrated assessment of fine wrinkling, coarse wrinkling, mottled pigmentation, roughness, sallowness, skin laxity, and telangiectasia based on the subject's appearance at the baseline visit).
At Visit 7 (Week 8), the subjects will complete a self-assessment questionnaire evaluating the change in the 1) overall appearance of the skin and 2) overall feel of the skin after treatment. The scoring will be on a 5-point scale: Much worsened, somewhat worsened, no change, somewhat improved, much improved.
The secondary response criteria will be analysed for the full analysis set and for the per protocol analysis set. The ratio of number of AK lesions at week 8 relative to baseline, excluding lesions identified at base line as hyperkeratotic/hypertrophic lesions, will be tabulated by treatment group. Separately for each treatment group, the rate and corresponding 95% confidence interval will be estimated from a negative binomial regression on the AK count at week 8 with the log baseline value as an offset variable. The same analysis will be performed for the subgroup of lesions identified as hyperkeratotic/hypertrophic at baseline. […]

[1] = Part 1: dose escalation trial, gel once daily for two consecutive days, dose limiting toxicity based on local skin reactions; type: in vivo, human
Description: Local skin reactions (LSRs) occur sometimes in the treated area. Often LSRs are quantified by a scale evaluating the following types of skin reactions: erythema, flaking/scaling, crusting, swelling, vasiculation/postulation, and erosion/ulceration which are categorized into categories 0-4 depending on the severity of the reactions. The present invention utilizes data obtained from a previous dose escalation trial, wherein maximal tolerated doses were identified.
In the trial pre-defined grades of LSRs will constitute Dose Limiting Toxicity.
Dose Limiting toxicity (DLT) is defined one or more of the following LSRs: • crusting Grade 4 • Erosion/ulceration Grade 4 • vesiculation/postulation Grade 4 or
Two or more of the following LSRs: • Crusting Grade 3 • Swelling grade 4 • Erosion/ulceration Grade 3 • vesiculation/postulation Grade 3 or • other clinically relevant signs or symptoms observed, which the Investigator judges to be counted as a DLT. Maximum tolerated dose (MTD) is declared as dose level at which less than 4 subjects out of experience a DLT of cohort of 12 subjects.
Part 1 was a dose escalation study conducted with a once daily application of trial medication for two consecutive days and continued until the MTD was identified.
Dose escalation proceeded if the safety and tolerability data of the subject up to day 8 was reviewed and considered satisfactory. The treatment consisted of once daily treatment for 2 consecutive days. Up to 5 different doses may be investigated in cohorts of 1 subject. The number of subjects in each cohort depended on the number of observed DLTs. However, the MTD was always be confirmed in a cohort of 12 subjects. […] Part 2 is a study of the efficacy of the 0.1% dose identified in part 1 in a three day regimen.
Part 1: Trial medication, ingenol 3-(3,5-diethylisoxazole-4-carboxylate) gel, will be applied to the treatment area once daily for two consecutive days until the maximum tolerated dose has been reached for each formulation. Up to five different doses of active compound in gel may be investigated in cohorts 12 subjects. […]

[2] = highest dose 0.1%, once daily for 2 consecutive days

CCc1noc(CC)c1C(=O)O[C@H]1C(C)=C[C@]23C(=O)[C@@H](C=C(CO)[C@@H](O)[C@]12O)[C@H]1[C@@H](C[C@H]3C)C1(C)C [ingenol 3-(3,5-diethylisoxazole-4-carboxylate)]
efficacy in eliminating dermal tumours, compared with ingenol mebutate (dermal tumours): more efficacious than ingenol mebutate
side-effects (actinic keratosis; 0.1% gel, once daily three consecutive days): acceptable
reduction in AK count (actinic keratosis; 0.1% gel, once daily three consecutive days, approx. 250 cm^2 area, week 8, 62 patients): 59%
complete clearance (actinic keratosis; 0.1% gel, once daily three consecutive days, week 8): 23%
time at which side-effects maximize (actinic keratosis; 0.1% gel, once daily three consecutive days, rapid decline thereafter): 4 days
cosmetic outcome of the treatment (actinic keratosis; 0.1% gel, three day regimen): good
patients with photo damage improved (actinic keratosis; investigator assessment, fraction of patients): two-thirds
subjects reporting improvement in appearance and feel (actinic keratosis; self-assessment by subject): more than 70%
dose limiting toxicity (DLT) [1, 2]: no real DLT was identified
tolerability [1, 2]: well tolerated
tolerability with respect to LSRs and application site reaction ([1]; selected dose (0.1%), two days dosing regimen): well tolerated
